The values that follow come from patent US20050086710A1, “Method for generating recombinant human platelets for identifying therapeutic target proteins” (priority 2002, published 2005).

Experiment [1] concerns megakaryocyte-derived platelets. The experiment in a line: FACS measurement of platelet surface markers after activation, megakaryocyte-derived platelets. Type of experiment: cell-based, human. On the set-up: unit not given here. As to conditions: TRAP 25 μM or ADP 5 or 20 μM, 10 min. On the procedure: (§1) Then, the mixture was spun down for 5 min. at 1800 rpm (in a tabletop centrifuge). The supernatant was discarded, 300-400 μL staining-buffer were added. FACS measurements were done immediately. For the following studies, antibodies against the following antigens were used: [table] The antibodies were coupled to the following fluorescence systems, where appropriate (either directly or via secondary antibodies) and measured by fluorescence-activated cell sorting (FACS): [table] Platelets which co-expressed the transgene GFP were gated for this marker by studying FITC fluorescence, and the same measurements were then exclusively related to this gate.

The subject of experiment [2] is freshly isolated human platelets. The experiment in a line: FACS measurement of platelet surface markers after activation, freshly isolated platelets. Type of experiment: cell-based. Further details: CD 41 (FACS) / CD 61 (FACS) / CD42b (FACS) / CD62P (FACS): unit not given here. The note with it: TRAP 25 μM or ADP 5 or 20 μM, 10 min. On the procedure: as §1, with “Freshly drawn blood from human volunteers was transferred into a Falcon tube and spun down for 20 min. at 1080 rpm at 20° C. […] The mixture was spun down for 10 min. at 2100 rpm at 20° C. The pellet was resuspended in staining buffer (1×PBS (w/o CA^2+ Mg^+) with 0.1% sodium azide and 2% fetal bovine serum) in a volume of 40 μl. […] Then,” for “Then,”, “(FACS): […]” for “(FACS): [table]”

Experiment [3] has as its system modified platelets expressing GFP. The experiment in a line: FACS measurement of platelet surface markers after activation, modified platelets expressing GFP. Type of experiment: cell-based, human. The note with it: gated for GFP, TRAP 25 μM or ADP 5 or 20 μM. The text has this: (§2) Modified (E1/E3-deficient) flag-tagged adenoviruses for novel transgenes were generated that for expressing a transgene and green fluorescence protein (GFP) under control of two independent CMV promoters in a bi-cistronic system (He T C, Zhou S, da Costa L T, Yu J, Kinzler K W, Vogelstein B. A simplified system for generating modified adenoviruses. Proc Natl Acad Sci USA. 1998; 95:2509-14, purchased from Q Biogene, Heidelberg, Germany). As a control, Ad-GFP without further transgene was used. Large virus stocks were prepared and purified by centrifugation via cesium chloride density gradients. Adenoviral titers were determined using plaque titration and GFP expression titration in […] cells. • 1) Megakaryocytes were harvested at day 8-11 after isolation using a wide sterile single-use pipette and spun down in a 15 mL Falcon-tube at 1650 rpm for 8 min. • 2) The supernatant was discarded and the pellet resuspended in Opimem (at 4×10^5 cells/300 μL). • 3) Adenovirus was added to each well of a 24 well-plate for infection (multiplicity of infection (MOI) of 400 plaque forming units per cell). • 4) Cells were added and mixed by shaking, incubated for 30 min at 37° C. at 5% CO2, then • 5) spun down at 1000 rpm, 20° C. for 10 min.
• 1) Platelets were harvested by centrifugation at 1800 rpm for 1¼ min at 20° C.; the supernatant was diluted 1:1 with platelet wash buffer (1×PBS (w/o CA^2+ Mg^+) with 0.1% sodium azide (pH 7.2+/−0.2)). • 2) They were filtered through a 0.2 μm filter prior to use, stored at 4° C. and spun down at 1800 rpm for 5 min. • 3) The supernatant was discarded. ≈1 mL was left in the tube and washed again with staining buffer (1×PBS (w/o CA^2+Mg^+) with 0.1% sodium azide and 2% fetal bovine serum (FBS) and stored at 4° C. • 4) The supernatant was completely discarded. • 5) The pellet was resuspended in platelet-staining-buffer ([…]). • 6) 20 μL of the activators thrombin receptor activating peptide (TRAP; 25 μM), ADP (5 or 20 μM) or thrombin (2 U/ml) were added. 35 μL of the fibrinogen receptor binding peptide RGD or its negative control, RED, were added where indicated. • 7) The mixture was incubated for 10 min. at room temperature in the dark. • 8) Antibodys were added directly (in a volume of 7 μL each except for LIBS-FITC at 3.5 μL) and incubated for 20-30 min. at room temperature in the dark. • 9) 500-600 μL platelet staining buffer was added. Then, the mixture was spun down for 5 min. at 1800 rpm (in a tabletop centrifuge). The supernatant was discarded, 300-400 μL staining-buffer were added. FACS measurements were done immediately.
For the following studies, antibodies against the following antigens were used:
The antibodies were coupled to the following fluorescence systems, where appropriate (either directly or via secondary antibodies) and measured by fluorescence-activated cell sorting (FACS):
Platelets which co-expressed the transgene GFP were gated for this marker by studying FITC fluorescence, and the same measurements were then exclusively related to this gate.

Experiment [4] has as its system stem cell-derived platelets. The experiment in a line: ELISA, thrombin dependent release of β-thromboglobulin, stem cell-derived platelets. It counts as cell-based. On the procedure: (§3) ELISA Assays for β-thromboglobulin (Asserachrom β-TG, Roche Diagnostics, Mannheim, Germany) and platelet-derived growth factor (PDGF; PDGF-AB Immunoassay, Qiagen, Hilden, Germany) were performed according to the manufacturers' instructions. By using these assays, the thrombin dependent release of both mediators from platelets was assessed.
Background: In an ELISA, binding on a coated surface is turned into a signal by an enzyme label.

The subject of experiment [5] is stem cell-derived platelets after infection with Ad-GFP. The experiment in a line: ELISA, release of β-thromboglobulin, platelets after infection with Ad-GFP. As to conditions: thrombin vs basal. It counts as cell-based.
Excerpt: as §2, with “10 min. […]” for “10 min.”

Experiment [6] has as its system freshly isolated platelets. The experiment in a line: ELISA, release of β-thromboglobulin, freshly isolated platelets. It counts as cell-based, human. The note with it: thrombin, amount not stated (basal 59±6). On the procedure:
(§4) Freshly drawn blood from human volunteers was transferred into a Falcon tube and spun down for 20 min. at 1080 rpm at 20° C. The supernatant yielded the PRP (platelet-rich-plasma) and was transferred to a new tube and diluted 1:4 with wash-buffer (1×PBS (w/o CA^2+ Mg^+) with 0.1% sodium azide, pH 7.2+/−0.2, filtered through a 0.2 μm filter prior to use and stored at 4° C.). The mixture was spun down for 10 min. at 2100 rpm at 20° C. The pellet was resuspended in staining buffer (1×PBS (w/o CA^2+ Mg^+) with 0.1% sodium azide and 2% fetal bovine serum) in a volume of 40 μl.
as §3

Experiment [7] concerns stem cell-derived platelets. The experiment in a line: ELISA, thrombin dependent release of PDGF, stem cell-derived platelets. It counts as cell-based. On the procedure: as §3
The subject of experiment [8] is stem cell-derived platelets after infection with Ad-GFP. The experiment in a line: ELISA, release of PDGF, platelets after infection with Ad-GFP. Type of experiment: cell-based. The note with it: thrombin vs basal.
Excerpt: as §2, with “10 min. […]” for “10 min.”

Experiment [9] concerns freshly isolated platelets. The experiment in a line: ELISA, release of PDGF, freshly isolated platelets. It counts as cell-based, human. On the procedure:
as §4, §3

Consider `Nc1ncnc2c1ncn2[C@@H]1O[C@H](COP(=O)(O)OP(=O)(O)O)[C@@H](O)[C@H]1O` [ADP], for which, in [1], the “CD 41 (FACS)” value came to 258 ± 24, the “CD42b (FACS)” value was 46 ± 25, the “CD 61 (FACS)” value is on record as 76 ± 9.5 and the “CD62P (FACS)” value is reported as 121 ± 61. For the same molecule, in [2], the “CD 41 (FACS)” value is 92 ± 37, the “CD42b (FACS)” value is reported as 58 ± 15, the “CD 61 (FACS)” value was determined as 16 ± 6 and the “CD62P (FACS)” value was found to be 75 ± 18. In addition, in [2], the “PAC-1 (FACS)” value came out at 90 ± 26. Further, in [3], the “CD 41 (FACS)” value worked out at 216 ± 18, the “CD42b (FACS)” value is recorded as 95 ± 63, the “CD 61 (FACS)” value came out at 333 ± 78 and the “CD62P (FACS)” value is recorded as 314 ± 153. Besides, in experiment [3], the “PAC-1 (FACS)” value is given as 198 ± 10.
With “thrombin receptor activating peptide [TRAP]”, in experiment [1], the “CD 41 (FACS)” value stood at 248 ± 23, the “CD42b (FACS)” value is listed as 75 ± 41, the “CD 61 (FACS)” value came to 75 ± 14 and the “CD62P (FACS)” value is recorded as 138 ± 69. Further, in experiment [2], the “CD 41 (FACS)” value is 99 ± 25, the “CD42b (FACS)” value was 40 ± 2, the “CD 61 (FACS)” value is 19 ± 4.8 and the “CD62P (FACS)” value is recorded as 162 ± 50. In experiment [2], the “PAC-1 (FACS)” value came out at 122 ± 34. In experiment [3], the “CD 41 (FACS)” value worked out at 213 ± 34, the “CD42b (FACS)” value is listed as 81 ± 29, the “CD 61 (FACS)” value turned out to be 325 ± 73 and the “CD62P (FACS)” value is given as 299 ± 146. In addition, the “PAC-1 (FACS)” value in [3] came out at 178 ± 41.
In the case of thrombin, the “Release of β-thromboglobulin” value was 219±11 U/ml in experiment [4] (0.2 U thrombin (basal 52±19)), 250±92 U/ml in experiment [4] (2 U thrombin (basal 52±19)) and 115±10 U/ml in experiment [6]. Also, the “increase in βTG release” value in experiment [5] is “four-fold”. Also, the “release of PDGF” value in [7] (0.2 U thrombin (basal 280±95)) was 590 ± 22 pg/mL; in experiment [7] (2 U thrombin (basal 280±95)), 610 pg/mL; in [9] (0.2 U thrombin (basal 214±11)), 566 ± 10 pg/mL; in experiment [9] (1 U thrombin (basal 214±11)), 664 ± 12 pg/mL. In addition, the “increase of PDGF release” value in experiment [8] is given as 123±7%.
